Experimental data published in ChEMBL document CHEMBL4433268, “Rational design of a SHP-2 targeted, fluorogenic peptide substrate” (Bioorg Med Chem Lett, 2019).
Activity calls are given as the source filed them. The rule behind the calls is not given here. Non-standard residues stand in square brackets, D forms with d. Residues, ends and D or L forms follow the SMILES beside them. Ala(7-OPO3H2-coumarin-4-yl) = N[C@@H](Cc1cc(=O)oc2cc(OP(=O)(O)O)ccc12)C(=O)O

Columns and labels:
[1] = molecular target: Receptor-type tyrosine-protein phosphatase mu (Homo sapiens) (UniProt P28827); test: Substrate activity at PTPmu (unknown origin) expressed in Escherichia coli BL21 (DE3) incubated for 60 mins by fluorescence based assay
[2] = molecular target: T1, Tyrosine-protein phosphatase non-receptor type 22 (Homo sapiens) (UniProt Q9Y2R2); test: Substrate activity at LYP (unknown origin) expressed in Escherichia coli BL21 (DE3) incubated for 60 mins by fluorescence based assay
T1 sequence (whole entry): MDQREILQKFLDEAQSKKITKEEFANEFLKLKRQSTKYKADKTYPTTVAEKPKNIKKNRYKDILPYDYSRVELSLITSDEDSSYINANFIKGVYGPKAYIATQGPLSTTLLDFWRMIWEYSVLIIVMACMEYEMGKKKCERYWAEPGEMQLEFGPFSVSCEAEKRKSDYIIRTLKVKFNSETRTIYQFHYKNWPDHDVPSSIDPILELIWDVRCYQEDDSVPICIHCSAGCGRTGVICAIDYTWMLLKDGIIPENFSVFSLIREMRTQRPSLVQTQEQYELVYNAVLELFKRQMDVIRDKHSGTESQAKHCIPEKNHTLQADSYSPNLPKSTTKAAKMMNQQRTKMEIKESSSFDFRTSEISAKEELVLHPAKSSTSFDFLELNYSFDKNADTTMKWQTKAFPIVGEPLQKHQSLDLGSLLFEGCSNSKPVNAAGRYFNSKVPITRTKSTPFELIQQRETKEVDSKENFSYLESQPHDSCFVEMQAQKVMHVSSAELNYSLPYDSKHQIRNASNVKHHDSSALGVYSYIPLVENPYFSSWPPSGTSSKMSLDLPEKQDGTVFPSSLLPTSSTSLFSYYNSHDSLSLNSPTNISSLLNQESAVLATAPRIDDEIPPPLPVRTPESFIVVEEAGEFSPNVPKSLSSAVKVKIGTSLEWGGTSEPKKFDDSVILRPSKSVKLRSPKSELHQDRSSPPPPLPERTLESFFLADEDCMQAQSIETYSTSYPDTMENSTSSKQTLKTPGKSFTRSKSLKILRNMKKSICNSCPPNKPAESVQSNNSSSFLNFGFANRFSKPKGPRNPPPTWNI

[3] = molecular target: T2, Tyrosine-protein phosphatase non-receptor type 4 (Homo sapiens) (UniProt P29074); test: Substrate activity at MEG1 (unknown origin) expressed in Escherichia coli BL21 (DE3) incubated for 60 mins by fluorescence based assay
T2 sequence (whole entry): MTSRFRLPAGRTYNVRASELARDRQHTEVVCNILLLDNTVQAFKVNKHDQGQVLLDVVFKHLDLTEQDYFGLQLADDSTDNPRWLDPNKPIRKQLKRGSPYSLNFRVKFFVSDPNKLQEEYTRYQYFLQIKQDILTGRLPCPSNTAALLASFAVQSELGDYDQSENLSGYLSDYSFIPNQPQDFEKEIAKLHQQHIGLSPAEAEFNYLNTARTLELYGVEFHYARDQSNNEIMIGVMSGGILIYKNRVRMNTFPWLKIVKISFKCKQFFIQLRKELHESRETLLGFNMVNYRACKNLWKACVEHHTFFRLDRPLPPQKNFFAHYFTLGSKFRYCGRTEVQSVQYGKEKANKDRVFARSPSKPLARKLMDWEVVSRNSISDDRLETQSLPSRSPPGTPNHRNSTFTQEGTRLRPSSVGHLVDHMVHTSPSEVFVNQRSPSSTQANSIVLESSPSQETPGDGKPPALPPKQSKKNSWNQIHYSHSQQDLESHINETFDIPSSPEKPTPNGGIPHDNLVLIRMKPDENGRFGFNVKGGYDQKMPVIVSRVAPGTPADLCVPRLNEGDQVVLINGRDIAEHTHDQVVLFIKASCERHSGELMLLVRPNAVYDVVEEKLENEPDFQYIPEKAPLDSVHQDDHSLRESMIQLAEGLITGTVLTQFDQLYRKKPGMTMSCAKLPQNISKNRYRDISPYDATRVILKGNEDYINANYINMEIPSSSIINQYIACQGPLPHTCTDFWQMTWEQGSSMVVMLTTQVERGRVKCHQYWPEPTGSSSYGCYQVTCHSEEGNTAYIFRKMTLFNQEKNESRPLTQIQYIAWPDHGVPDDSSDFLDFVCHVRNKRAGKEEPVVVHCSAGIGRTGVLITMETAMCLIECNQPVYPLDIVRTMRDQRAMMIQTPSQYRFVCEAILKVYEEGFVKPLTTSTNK

[4] = molecular target: T3, Tyrosine-protein phosphatase non-receptor type 11 (Homo sapiens) (UniProt Q06124); test: Substrate activity at SHP2 (unknown origin) expressed in Escherichia coli BL21 (DE3) incubated for 60 mins by fluorescence based assay
T3 sequence (whole entry): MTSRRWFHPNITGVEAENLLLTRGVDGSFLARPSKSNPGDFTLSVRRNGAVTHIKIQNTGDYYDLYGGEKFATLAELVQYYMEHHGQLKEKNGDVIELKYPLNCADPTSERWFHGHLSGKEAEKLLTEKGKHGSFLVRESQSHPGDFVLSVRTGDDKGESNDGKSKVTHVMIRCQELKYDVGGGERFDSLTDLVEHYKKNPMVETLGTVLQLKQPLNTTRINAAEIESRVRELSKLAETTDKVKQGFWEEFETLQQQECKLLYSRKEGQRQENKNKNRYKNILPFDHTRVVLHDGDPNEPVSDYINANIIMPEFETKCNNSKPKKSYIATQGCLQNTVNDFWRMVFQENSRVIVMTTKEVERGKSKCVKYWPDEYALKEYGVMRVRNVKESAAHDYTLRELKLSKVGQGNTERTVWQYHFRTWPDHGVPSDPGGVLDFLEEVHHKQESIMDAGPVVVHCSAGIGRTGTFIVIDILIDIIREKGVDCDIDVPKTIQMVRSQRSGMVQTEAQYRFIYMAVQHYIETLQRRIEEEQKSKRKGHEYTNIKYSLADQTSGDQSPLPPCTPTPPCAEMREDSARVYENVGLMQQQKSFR

[5] = molecular target: T4, Tyrosine-protein phosphatase non-receptor type 7 (Homo sapiens) (UniProt P35236); test: Substrate activity at HEPTP (unknown origin) expressed in Escherichia coli BL21 (DE3) incubated for 60 mins by fluorescence based assay
T4 sequence (whole entry): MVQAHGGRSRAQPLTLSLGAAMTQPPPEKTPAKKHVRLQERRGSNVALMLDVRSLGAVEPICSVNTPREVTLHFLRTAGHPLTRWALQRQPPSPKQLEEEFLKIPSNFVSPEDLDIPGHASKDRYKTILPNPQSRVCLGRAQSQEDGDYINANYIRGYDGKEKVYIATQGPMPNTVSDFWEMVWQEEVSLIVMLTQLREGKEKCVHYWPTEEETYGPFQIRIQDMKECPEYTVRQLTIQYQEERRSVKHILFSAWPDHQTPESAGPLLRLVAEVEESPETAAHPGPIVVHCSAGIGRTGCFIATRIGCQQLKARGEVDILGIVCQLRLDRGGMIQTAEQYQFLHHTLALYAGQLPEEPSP

Chain of Receptor-type tyrosine-protein phosphatase mu (Homo sapiens) (P28827 whole entry): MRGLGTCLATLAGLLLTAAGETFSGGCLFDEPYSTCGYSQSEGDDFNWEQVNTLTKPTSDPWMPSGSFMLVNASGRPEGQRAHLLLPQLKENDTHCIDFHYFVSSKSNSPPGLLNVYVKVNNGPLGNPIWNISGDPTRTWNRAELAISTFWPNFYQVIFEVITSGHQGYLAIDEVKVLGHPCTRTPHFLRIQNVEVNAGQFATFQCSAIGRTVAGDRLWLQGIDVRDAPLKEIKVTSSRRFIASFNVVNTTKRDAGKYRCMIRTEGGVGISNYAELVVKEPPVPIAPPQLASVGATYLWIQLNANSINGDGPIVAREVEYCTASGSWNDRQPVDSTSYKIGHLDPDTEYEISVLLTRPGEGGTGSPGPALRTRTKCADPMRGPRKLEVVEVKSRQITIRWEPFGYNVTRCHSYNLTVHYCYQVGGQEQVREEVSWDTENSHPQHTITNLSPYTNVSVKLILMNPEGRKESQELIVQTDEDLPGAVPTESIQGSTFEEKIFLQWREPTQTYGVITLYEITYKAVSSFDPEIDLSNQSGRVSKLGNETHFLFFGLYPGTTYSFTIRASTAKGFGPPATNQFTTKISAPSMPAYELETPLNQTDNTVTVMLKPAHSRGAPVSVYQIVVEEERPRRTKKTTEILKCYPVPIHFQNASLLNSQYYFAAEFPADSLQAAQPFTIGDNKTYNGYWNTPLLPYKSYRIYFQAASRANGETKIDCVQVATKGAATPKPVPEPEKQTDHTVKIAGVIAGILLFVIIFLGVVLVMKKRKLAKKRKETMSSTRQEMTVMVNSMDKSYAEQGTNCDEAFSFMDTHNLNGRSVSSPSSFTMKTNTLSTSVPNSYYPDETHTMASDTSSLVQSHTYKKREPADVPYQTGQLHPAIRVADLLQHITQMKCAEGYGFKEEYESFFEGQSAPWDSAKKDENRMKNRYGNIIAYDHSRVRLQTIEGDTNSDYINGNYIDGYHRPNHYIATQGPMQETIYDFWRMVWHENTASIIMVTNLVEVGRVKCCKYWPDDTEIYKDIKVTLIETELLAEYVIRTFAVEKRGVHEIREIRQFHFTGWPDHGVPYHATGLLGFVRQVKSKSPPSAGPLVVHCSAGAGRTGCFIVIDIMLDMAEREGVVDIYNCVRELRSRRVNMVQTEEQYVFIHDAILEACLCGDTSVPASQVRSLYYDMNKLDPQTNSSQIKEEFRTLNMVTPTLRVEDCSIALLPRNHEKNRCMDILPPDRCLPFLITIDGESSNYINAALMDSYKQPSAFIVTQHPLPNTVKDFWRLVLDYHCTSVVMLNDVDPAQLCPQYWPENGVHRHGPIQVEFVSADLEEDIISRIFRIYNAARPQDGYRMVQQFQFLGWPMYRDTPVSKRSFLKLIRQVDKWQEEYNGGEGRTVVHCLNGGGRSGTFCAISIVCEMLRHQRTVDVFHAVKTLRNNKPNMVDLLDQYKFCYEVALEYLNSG

Row | Activity [1] | Activity [2] | Activity [3] | Activity [4] | Activity [5] | Structure (SMILES)
1 | inactive | Active | inactive | Active | inactive | CC[C@H](C)[C@H](NC(=O)[C@@H](NC(=O)[C@H](CC(=O)O)NC(=O)[C@H](CC(=O)O)NC(C)=O)[C@@H](C)O)C(=O)N[C@@H](Cc1cc(=O)oc2cc(OP(=O)(O)O)ccc12)C(=O)N[C@@H](CC(=O)O)C(=O)N[C@H](C(=O)N[C@@H](CC(C)C)C(=O)N[C@@H](CC(=O)O)C(N)=O)C(C)C (Ac-DDTI[Ala(7-OPO3H2-coumarin-4-yl)]DVLD-NH2)
2 | inactive | – | – | Active | – | CC[C@H](C)[C@H](NC(=O)[C@@H](NC(=O)[C@H](CC(=O)O)NC(=O)[C@H](CC(=O)O)NC(C)=O)[C@@H](C)O)C(=O)N[C@@H](Cc1cc(=O)oc2cc(OP(=O)(O)O)ccc12)C(=O)N[C@H](C(=O)N[C@H](C(=O)N[C@@H](CC(C)C)C(=O)N[C@@H](CC(=O)O)C(N)=O)C(C)C)[C@@H](C)O (Ac-DDTI[Ala(7-OPO3H2-coumarin-4-yl)]TVLD-NH2)
3 | inactive | Active | Active | Active | Active | CC[C@H](C)[C@H](NC(=O)[C@@H](NC(=O)[C@H](CC(=O)O)NC(=O)[C@H](CC(=O)O)NC(C)=O)[C@@H](C)O)C(=O)N[C@@H](Cc1cc(=O)oc2cc(OP(=O)(O)O)ccc12)C(=O)N[C@H](C(=O)N[C@H](C(=O)N[C@@H](CC(C)C)C(=O)N[C@@H](CC(=O)O)C(N)=O)C(C)C)C(C)C (Ac-DDTI[Ala(7-OPO3H2-coumarin-4-yl)]VVLD-NH2)
4 | inactive | – | – | Active | – | CC[C@H](C)[C@H](NC(=O)[C@@H](NC(=O)[C@@H]1CCCN1C(=O)[C@H](CC(=O)O)NC(C)=O)[C@@H](C)O)C(=O)N[C@@H](Cc1cc(=O)oc2cc(OP(=O)(O)O)ccc12)C(=O)N1CCC[C@H]1C(=O)N[C@H](C(=O)N[C@@H](CC(C)C)C(=O)N[C@@H](CC(=O)O)C(N)=O)C(C)C (Ac-DPTI[Ala(7-OPO3H2-coumarin-4-yl)]PVLD-NH2)
5 | inactive | – | – | Active | – | CC[C@H](C)[C@H](NC(=O)[C@@H](NC(=O)[C@H](CO)NC(=O)[C@H](CC(=O)O)NC(C)=O)[C@@H](C)O)C(=O)N[C@@H](Cc1cc(=O)oc2cc(OP(=O)(O)O)ccc12)C(=O)N[C@@H](CC(=O)O)C(=O)N[C@H](C(=O)N[C@@H](CC(C)C)C(=O)N[C@@H](CC(=O)O)C(N)=O)C(C)C (Ac-DSTI[Ala(7-OPO3H2-coumarin-4-yl)]DVLD-NH2)
6 | inactive | – | – | Active | – | CC[C@H](C)[C@H](NC(=O)[C@@H](NC(=O)[C@H](CO)NC(=O)[C@H](CC(=O)O)NC(C)=O)[C@@H](C)O)C(=O)N[C@@H](Cc1cc(=O)oc2cc(OP(=O)(O)O)ccc12)C(=O)N[C@H](C(=O)N[C@H](C(=O)N[C@@H](CC(C)C)C(=O)N[C@@H](CC(=O)O)C(N)=O)C(C)C)[C@@H](C)O (Ac-DSTI[Ala(7-OPO3H2-coumarin-4-yl)]TVLD-NH2)
7 | inactive | – | – | Active | – | CC[C@H](C)[C@H](NC(=O)[C@@H](NC(=O)[C@H](CO)NC(=O)[C@H](CC(=O)O)NC(C)=O)[C@@H](C)O)C(=O)N[C@@H](Cc1cc(=O)oc2cc(OP(=O)(O)O)ccc12)C(=O)N[C@H](C(=O)N[C@H](C(=O)N[C@@H](CC(C)C)C(=O)N[C@@H](CC(=O)O)C(N)=O)C(C)C)C(C)C (Ac-DSTI[Ala(7-OPO3H2-coumarin-4-yl)]VVLD-NH2)
